Measurements taken from US20120058500A1, “PLATELET AGGREGATION USING A MICROFLUIDICS DEVICE” (Monash University, priority 2009, published 2012).
Positions of bridges follow the written chain, without caps; N, C: chain ends. Non-standard residues stand in square brackets, D forms with d. Residues, ends and D or L forms follow the SMILES beside them. hArg = N=C(N)NCCCC[C@H](N)C(=O)O; Mpa = O=C(O)CCS

Columns and labels:
[1] = system: platelet aggregation in human whole blood; test: Anti-platelet inhibitor effects in microchannel, c85 g30 e85 100-100 μm format; assay type: cell-based; conditions: 10 mins pre-treatment, hirudin anti-coagulated whole blood, FIG. 22
Description: (§1) Blood samples from subjects were taken via venisection of the antecubital vein using a 10 ml syringe fitted with a 19 guage needle containing 800 U/ml hirudin as anticoagulant.
(§2) Blood perfusion studies through the device were carried out using hiridin (800 U/ml) anticoagulated whole blood taken from consenting human donors. Whole blood samples were incubated at 37° C. for 10 minutes with the lipophylic membrane dye DiOC6 (1 μg/ml) or DiICl2 (1 μg/ml) to allow the cells to be more readily visualised through the device.
The micro-geometry device used in the present example has a contraction angle (θc) of 85°, an expansion angle (θe) of 85°, a gap width of 30 μm, a gap length of 15 μm and channel entry and exit width of 100 μm (c85 g30 e85 100-100 μm format).
The following anti-platelet drugs were used either alone or in combination: • 1. Hirudin: Human whole blood anti-coagulated with Hirudin (800 U/ml) as a control. • 2. Hirudin+MRS: Human (hirudin anti-coagulated) whole blood pre-treated for 10 mins with 100 μM of the P2Y1 adenosine-5′-diphosphate (ADP) antagonist N6-methyl-2′-deoxyadenosine-3′,5′-bisphosphate (MRS2179). • 3. Hirudin+2Me: Human (hirudin anti-coagulate) whole blood pre-treated for 10 mins with 10 μM of the P2Y12 (ADP) antagonist 2-methylthio-AMP (2MesAMP). • 4. […]

[2] = system: platelet aggregation in human blood; conditions: treated samples versus normal samples, specific microchannel geometries
From the text: It will be further appreciated that the device and method of the invention can be used to assay the effectiveness of particular drugs or substances.

[3] = system: platelet aggregation in hirudin-anticoagulated whole blood; test: Whole blood perfusion through step geometry micro-shear gradient device (c90 g10 e60 100-700 μm format), platelet aggregation traces; assay type: cell-based, human; conditions: whole blood treated 10 minutes with 30 μg/ml prior to perfusion; input shear rate 1,800 s^-1; FIG. 11c
Description: as §1, §2
FIG. 11a is a representative micrograph (40× magnification) sequence of human (hirudin anti-coagulated) blood perfusion through a micro-shear gradient device consisting of an in-flow (entry) width of 100 μm, a contraction angle (θc) of 90°, a gap height of 10 μm, an expansion angle (θe)) of 60°, and an expansion/exit width of 700 μm. The grey arrow denotes the point of initial aggregation [t=12 sec], the black arrow designates the limit of thrombus growth in the expansion zone (representative of n=3 experiments).
FIG. 11c comprises representative aggregation traces showing the response of whole blood perfusion through the PDMS microchannel device depicted in FIG. 11a. […]

[4] = system: platelet aggregation in whole blood; test: Real-time epi-fluorescence imaging of DiOC6 labeled whole blood perfusion through the c60g20e60 microchannel; assay type: cell-based, human; conditions: 20 μg/ml; blood also pre-treated with apyrase, MRS2179, 2-MeSAMP, Indomethacin, hirudin; 16 μL/min, input strain rate 1,800 s-1
Description: as §1, §2
FIG. 20a represents real-time epi-fluorescence imaging of DiOC6 labeled whole blood perfusion at a constant flow rate of 16 μL/min (input strain rate=1,800 s−1) through the c60g20e60 geometric format over a 10 min timeframe, following pre-treatment for 10 minutes with the platelet inhibitors apyrase (0.02 U/ml), N6-methyl-2′-deoxyadenosine-3′,5′-bisphosphate (MRS2179 at 100 μM) and 2-methylthio-AMP (2-MeSAMP at 10 μM) to block ADP; Indomethacin (10 μM) to block TXA2; and hirudin (800 U/ml) to block thrombin. […] To investigate the platelet adhesion receptors mediating the aggregation response, whole blood samples were pretreated with the anti-integrin αIIbβ3 ab c7E3 (20 μg/ml) to block the platelet integrin αIIbβ3 or the anti-GPIb IgG Alma12 (50 μg/ml) to block platelet GPIb/V/IX engagement of VWF.

CNc1ncnc2c1ncn2[C@H]1C[C@H](OP(=O)(O)O)[C@@H](COP(=O)(O)O)O1 [MRS, N6-methyl-2′-deoxyadenosine-3′,5′-bisphosphate]
effect on the aggregation profile in the device ([1]; 100 μM, compared with the P2Y12 inhibitor): much more marked effect

CSc1nc(N)c2ncn([C@@H]3O[C@H](COP(=O)(O)O)[C@@H](O)[C@H]3O)c2n1 [inhibitor of the P2Y12 (ADP) receptor, 2-methylthio-AMP]
reduction in overall aggregation in the device ([1]; 10 μM): 50%

N=C(N)NCCCC[C@@H]1NC(=O)CCSSC[C@@H](C(N)=O)NC(=O)[C@@H]2CCCN2C(=O)[C@H](Cc2c[nH]c3ccccc23)NC(=O)[C@H](CC(=O)O)NC(=O)CNC1=O [integrilin] ([Mpa][hArg]GDWPC-NH2; disulfide 1-7)
platelet aggregation profile versus normal samples [2]: different platelet aggregation profile

B1: c7E3 Fab: anti-integrin αIIbβ3 ab c7E3, used to block the platelet integrin αIIbβ3 (antibody, chains of the INN, looked up, V domains shown)
VH: EVQLQQSGTVLARPGASVKMSCEASGYTFTNYWMHWVKQRPGQGLEWIGAIYPGNSDTSYIQKFKGKAKLTAVTSTTSVYMELSSLTNEDSAVYYCTLYDGYYVFAYWGQGTLVTVSA
VL: EIVLTQSPVTLSVTPGDSVSLSCRASRDISNNLHWFQQTSHESPRLLIKYASQSMSGIPSRFSGSGSGTDFTLSINSVETEDFGMYFCQQTNSWPYTFGGGTKLEIK
modifications: Fab
initial recruitment at the stenosis apex [3]: markedly delayed | overall aggregation [3]: suppressed | platelet aggregation within the c60g20e60 geometry [4]: completely inhibited
